Assays:
[1] = tested on: LDL; assay: Lag phase for LDL peroxidation ex vivo, diene conjugates after addition of copper ions; parameters: species or system human; details: treatment for one month; compared with vitamins alone or the combination of probucol and vitamins; preliminary results
[2] = tested on: restenosis after coronary angioplasty; assay: MVP randomized clinical trial, angiographic and clinical outcome; format: in vivo, human
Description: In addition, the invention enables the skilled practitioner to use probucol in conjunction with other percutaneous coronary interventions such as stenting if it is deemed appropriate. The present invention concerns the IVUS substudy from the MVP restenosis trial. MVP was a double-blind placebo-controlled randomized clinical trial with four study groups. The protocol was approved by the Montreal Heart Institute institutional review board. The MVP study design, inclusion and exclusion criteria have been previously described (N Engl J Med 1997; 365-372). Briefly, patients referred for elective coronary angioplasty were evaluated at least 30 days prior to their scheduled procedure. Eligible patients were asked to provide written informed consent. Patients were eligible if they were scheduled to undergo standard balloon angioplasty on at least one native coronary artery and had at least one de novo target lesion with luminal narrowing of fifty percent or more by caliper measurements. Beginning thirty days prior to scheduled angioplasty, patients were randomly assigned to receive either probucol alone, multivitamins alone, the combination of probucol and multivitamins, or placebo. Probucol 500 mg or matched placebo was administered twice daily. The multivitamin complex, consisting of vitamin E 700 IU, vitamin C 500 mg and beta-carotene 30,000 IU, or matched placebo was also administered in one tablet twice daily. All patients received an extra dose of probucol 1000 mg and/or vitamin E 2000 IU and/or matched placebos twelve hours before angioplasty, according to randomization assignment. […] Balloon angioplasty was performed according to standard techniques. […] The sequence of contrast injections with the exact degree of angulation was recorded and used for every angiogram. Coronary arteriograms (pre-, post-procedure, and final follow-up) were analyzed together using the Coronary Measurement System (CMS), as previously reported. Patient follow-up included clinical evaluation, exercise treadmill testing, blood chemistry, pill count and drug level measurements, and dietary assessment and intervention. Patients were readmitted for follow-up coronary angiography at five to seven months. Patients in whom arteriography was performed for clinical reasons before the fifth month returned for repeat angiographic examination at five to seven months if no definite angiographic restenosis was present on at least one dilated site. During follow-up, patients with recurrence or exacerbation of anginal symptoms were treated with medical therapy or revascularization procedures (reangioplasty or Coronary Bypass Surgery) as clinically indicated. […]

[3] = tested on: tissue hyperplasia and vascular remodeling after coronary angioplasty; assay: IVUS substudy of the MVP restenosis trial; format: in vivo, human; details: for Lumen area: Follow-up Post PTCA (change)
Description: Serial intravascular ultrasound (IVUS) examinations have been performed in a consecutive series of patients involved in the MVP trial. By providing tomographic views of coronary arteries with high resolution, IVUS allows quantitative assessment of changes in arterial lumen and wall dimensions. We were therefore able in this study to determine the pathophysiology of coronary restenosis after balloon angioplasty in patients systematically undergoing follow-up IVUS examination and determine the effect of probucol on tissue hyperplasia and vascular remodeling after coronary angioplasty.
The present invention concerns the IVUS substudy from the MVP restenosis trial. MVP was a double-blind placebo-controlled randomized clinical trial with four study groups. The protocol was approved by the Montreal Heart Institute institutional review board. The MVP study design, inclusion and exclusion criteria have been previously described (N Engl J Med 1997; 365-372). Briefly, patients referred for elective coronary angioplasty were evaluated at least 30 days prior to their scheduled procedure. Eligible patients were asked to provide written informed consent. Patients were eligible if they were scheduled to undergo standard balloon angioplasty on at least one native coronary artery and had at least one de novo target lesion with luminal narrowing of fifty percent or more by caliper measurements.
Beginning thirty days prior to scheduled angioplasty, patients were randomly assigned to receive either probucol alone, multivitamins alone, the combination of probucol and multivitamins, or placebo. Probucol 500 mg or matched placebo was administered twice daily. […] The sequence of contrast injections with the exact degree of angulation was recorded and used for every angiogram. Coronary arteriograms (pre-, post-procedure, and final follow-up) were analyzed together using the Coronary Measurement System (CMS), as previously reported. […] Patients were readmitted for follow-up coronary angiography at five to seven months. […]

[4] = compared to placebo, probucol given alone

How did the “protection against LDL oxidation” value [1] turn out when `CC(C)(Sc1cc(C(C)(C)C)c(O)c(C(C)(C)C)c1)Sc1cc(C(C)(C)C)c(O)c(C(C)(C)C)c1` [Probucol Alone, 4,4′-([1-methylethylidene)bis(thio)]bis-[2,6-bis(1,1-dimethylethyl)phenol]] was run?
Its value is “significantly greater protection”.

And the “reduction of the need for repeat angioplasty” value ([2]; at 6 month, compared to placebo, probucol given alone)?
The value was “fifty-eight”.

What about the “reduction of angiographic lumen loss” value [2, 4] of the same compound?
Its value is “sixty-eight”.

What about the “reduction of restenosis rate per segment” value [2, 4] of the same compound?
The value was “forty-seven”.

What about the “patients in whom restenosis still occurred” value ([2]; patients given probucol alone) of the same compound?
The value was “over twenty”.

And the Lumen area ([3]; compliant patients only)?
The Lumen area was −0.15 ± 1.70 mm^2.

And the Lumen area ([3]; per segment)?
Its Lumen area is −0.15 ± 1.70 mm^2.

And the “increase in vessel enlargement” value ([3]; probucol only compared with placebo)?
The value was “seven hundred-thirty”.
